From patent publication US9302999B2, “Substituted triazoles as herbicides” (E. I. DU PONT DE NEMOURS AND COMPANY, priority 2012, dated 2016)

Legend:
Format in all cases: in vivo
Details in all cases: Preemergence, scale 0 to 100
[1] = system: kochia (Kochia scoparia); experiment: Test E pre-/postemergence: kochia
Text: (§1) Seeds of plant species selected from corn (Zea mays), soybean (Glycine max), velvetleaf (Abutilon theophrasti), lambsquarters (Chenopodium album), poinsettia, wild (wild poinsettia, Euphorbia heterophylla), pigweed, palmer (palmer pigweed, Amaranthus palmeri), waterhemp (common waterhemp, Amaranthus rudis), smartweed (ladysthumb smartweed, Polygonum persicaria), surinam grass (Brachiaria decumbens), crabgrass, large (large crabgrass, Digitaria sanguinalis), crabgrass, Brazil (Brazilian crabgrass, Digitaria horizontalis), panicum, fall (fall panicum, Panicum dichotomiflorum), foxtail, giant (giant foxtail, Setaria faberii), foxtail, green (green foxtail, Setaria viridis), goosegrass (Eleusine indica), johnsongrass (Sorghum halepense), ragweed (common ragweed, Ambrosia elation), barnyardgrass (Echinochloa crus-galli), sandbur (southern sandbur, Cenchrus echinatus), arrowleaf sida (Sida rhombifolia), ryegrass, Italian (Italian ryegrass, Lolium multiflorum), dayflower, (VA) (Virginia dayflower, Commelina virginica), field bindweed (Convolvulus arvensis), cocklebur (common cocklebur, Xanthium strumarium), morningglory (Ipomoea coccinea), nightshade (eastern black nightshade, Solanum ptycanthum), kochia (Kochia scoparia), nutsedge, yellow (yellow nutsedge, Cyperus esculentus) and beggarticks (hairy beggarticks, Bidens pilosa) were planted into a silt loam soil and treated preemergence with test chemicals formulated in a non-phytotoxic solvent mixture which included a surfactant. At the same time, plants selected from these crop and weed species were planted in pots containing a growing medium comprising spaghnum peat moss, vermiculite, wetting agent and starter nutrients and treated with postemergence applications of some of the test chemicals formulated in the same manner. Plants ranged in height from 2 to 18 cm for postemergence treatments (1- to 4-leaf stage).
(§2) Treated plants and controls were maintained in a greenhouse for 14 to 21 days, after which time all species were compared to controls and visually evaluated. Plant response ratings, summarized in Table E, are based on a scale of 0 to 100 where 0 is no effect and 100 is complete control. A dash (-) response means no test result.

[2] = system: dayflower, (VA) (Virginia dayflower, Commelina virginica); experiment: Test E pre-/postemergence: dayflower, (VA)
Text: as §1, §2

[3] = system: poinsettia, wild (wild poinsettia, Euphorbia heterophylla); experiment: Test E pre-/postemergence: poinsettia, wild
Text: as §1, §2

[4] = system: ragweed (common ragweed, Ambrosia elation); experiment: Test E pre-/postemergence: ragweed
Text: as §1, §2

[5] = system: cocklebur (common cocklebur, Xanthium strumarium); experiment: Test E pre-/postemergence: cocklebur
Text: as §1, §2

[6] = system: foxtail, green (green foxtail, Setaria viridis); experiment: Test E pre-/postemergence: foxtail, green
Text: as §1, §2

[7] = system: lambsquarters (Chenopodium album); experiment: Test E pre-/postemergence: lambsquarters
Text: as §1, §2

[8] = system: waterhemp (common waterhemp, Amaranthus rudis); experiment: Test E pre-/postemergence: waterhemp
Text: as §1, §2

[9] = system: morningglory (Ipomoea coccinea); experiment: Test E pre-/postemergence: morningglory
Text: as §1, §2

[10] = system: goosegrass (Eleusine indica); experiment: Test E pre-/postemergence: goosegrass
Text: as §1, §2

FC(F)(F)COc1nn(-c2ccc(C(F)(F)F)cc2)nc1Cc1ccnc(C(F)(F)F)c1 [Compound 14, 4-[[5-(2,2,2-trifluoroethoxy)-2-[4-(trifluoromethyl)phenyl]-2H-1,2,3-triazol-4-yl]methyl]-2-(trifluoromethyl)pyridine]
100: Plant response rating: Kochia ([1]; 250 g ai/ha) | Plant response rating: Foxtail, Green ([6]; 250 g ai/ha) | Plant response rating: Waterhemp ([8]; 62 g ai/ha) | Plant response rating: Waterhemp ([8]; 125 g ai/ha) | Plant response rating: Waterhemp ([8]; 250 g ai/ha) | Plant response rating: Goosegrass ([10]; 31 g ai/ha) | Plant response rating: Goosegrass ([10]; 62 g ai/ha) | Plant response rating: Goosegrass ([10]; 125 g ai/ha) | Plant response rating: Goosegrass ([10]; 250 g ai/ha)
90: Plant response rating: Kochia ([1]; 62 g ai/ha) | Plant response rating: Ragweed ([4]; 250 g ai/ha) | Plant response rating: Waterhemp ([8]; 16 g ai/ha)
60: Plant response rating: Dayflower, VA ([2]; 62 g ai/ha)
80: Plant response rating: Ragweed ([4]; 125 g ai/ha) | Plant response rating: Lambsquarters ([7]; 16 g ai/ha)
70: Plant response rating: Dayflower, VA ([2]; 125 g ai/ha) | Plant response rating: Foxtail, Green ([6]; 125 g ai/ha)
20: Plant response rating: Kochia ([1]; 16 g ai/ha) | Plant response rating: Ragweed ([4]; 31 g ai/ha) | Plant response rating: Morningglory ([9]; 31 g ai/ha)
75: Plant response rating: Dayflower, VA ([2]; 250 g ai/ha) | Plant response rating: Poinsettia, Wild ([3]; 250 g ai/ha) | Plant response rating: Morningglory ([9]; 125 g ai/ha) | Plant response rating: Morningglory ([9]; 250 g ai/ha)
50: Plant response rating: Kochia ([1]; 31 g ai/ha) | Plant response rating: Dayflower, VA ([2]; 31 g ai/ha) | Plant response rating: Poinsettia, Wild ([3]; 62 g ai/ha) | Plant response rating: Cocklebur ([5]; 125 g ai/ha) | Plant response rating: Foxtail, Green ([6]; 62 g ai/ha)
65: Plant response rating: Poinsettia, Wild ([3]; 125 g ai/ha) | Plant response rating: Goosegrass ([10]; 16 g ai/ha)
15: Plant response rating: Poinsettia, Wild ([3]; 16 g ai/ha)
98: Plant response rating: Kochia ([1]; 125 g ai/ha) | Plant response rating: Lambsquarters ([7]; 31 g ai/ha) | Plant response rating: Lambsquarters ([7]; 62 g ai/ha) | Plant response rating: Lambsquarters ([7]; 125 g ai/ha) | Plant response rating: Lambsquarters ([7]; 250 g ai/ha) | Plant response rating: Waterhemp ([8]; 31 g ai/ha)
10: Plant response rating: Dayflower, VA ([2]; 16 g ai/ha)
0: Plant response rating: Ragweed ([4]; 16 g ai/ha) | Plant response rating: Cocklebur ([5]; 16 g ai/ha) | Plant response rating: Cocklebur ([5]; 31 g ai/ha) | Plant response rating: Cocklebur ([5]; 62 g ai/ha) | Plant response rating: Morningglory ([9]; 16 g ai/ha)
25: Plant response rating: Poinsettia, Wild ([3]; 31 g ai/ha) | Plant response rating: Foxtail, Green ([6]; 16 g ai/ha)
35: Plant response rating: Ragweed ([4]; 62 g ai/ha) | Plant response rating: Foxtail, Green ([6]; 31 g ai/ha) | Plant response rating: Morningglory ([9]; 62 g ai/ha)
